Bounds are passed on as bounds.

Usually IC50 stands for the point on the concentration scale where inhibition reaches its midpoint. Read a high IC50 as weaker potency.

The target of the test is T1, Human AhR (Homo sapiens, UniProt P35869).
T1 construct: host or cells: U87 glioblastoma cells, stably transfected with DRE-driven firefly luciferase and constitutive renilla reporter constructs
T1 sequence (P35869 11-848): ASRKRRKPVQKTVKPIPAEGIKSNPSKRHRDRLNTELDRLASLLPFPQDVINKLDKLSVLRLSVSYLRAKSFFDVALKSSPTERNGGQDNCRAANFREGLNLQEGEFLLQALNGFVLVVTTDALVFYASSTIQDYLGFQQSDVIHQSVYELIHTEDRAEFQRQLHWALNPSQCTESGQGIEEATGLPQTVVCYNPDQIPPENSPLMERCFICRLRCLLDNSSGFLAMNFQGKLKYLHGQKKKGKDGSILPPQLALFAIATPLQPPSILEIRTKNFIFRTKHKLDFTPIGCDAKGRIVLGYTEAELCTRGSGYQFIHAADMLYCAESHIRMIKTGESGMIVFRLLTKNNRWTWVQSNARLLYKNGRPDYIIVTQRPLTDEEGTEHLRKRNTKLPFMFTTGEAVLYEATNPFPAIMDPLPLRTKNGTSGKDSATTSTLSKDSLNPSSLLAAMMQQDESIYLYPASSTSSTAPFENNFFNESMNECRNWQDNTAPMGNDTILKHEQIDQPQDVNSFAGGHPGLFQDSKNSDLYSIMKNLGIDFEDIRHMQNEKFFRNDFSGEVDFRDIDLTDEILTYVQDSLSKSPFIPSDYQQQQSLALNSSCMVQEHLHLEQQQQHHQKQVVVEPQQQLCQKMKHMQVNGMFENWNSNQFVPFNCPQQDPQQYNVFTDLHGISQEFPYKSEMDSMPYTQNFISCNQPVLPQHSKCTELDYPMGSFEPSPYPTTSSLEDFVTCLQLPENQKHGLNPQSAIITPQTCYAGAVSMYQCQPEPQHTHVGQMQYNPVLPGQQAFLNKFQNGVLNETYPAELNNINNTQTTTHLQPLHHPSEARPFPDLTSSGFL
As to the kind of experiment: Transactivation assay in human cell line (in vitro assay 1: antagonism). To be noted: U87 glioblastoma cells, AHR inducible (DRE) firefly luciferase reporter, 150 μM kynurenic acid, 20 hours. The class given is cell-based. Here is the method: Transactivation Assay in Human Cell Line (In Vitro Assay 1)
Transactivation assay was carried out in U87 glioblastoma cells (ATCC) endogenously expressing AHR. In addition the cells were stably transfected with an AHR inducible firefly luciferase reporter gene construct that carried AHR-binding sites (DRE) in its promoter and a renilla reporter gene construct with constitutively active promoter. Kynurenic acid is an endogenous AHR activating ligand and was used to prestimulate test cells prior to testing the antagonistic properties of compounds.
In Vitro Assay 1: Antagonism in Human Cell Line
Firefly luciferase and Renilla activity was determined by the DualGlo Luciferase Assay System (Promega, #2920). Renilla activity was used to assess toxic effects of compounds.
Background: In a reporter assay the amount or activity of a reporter protein is the signal.
Molecule `Cn1cc(-c2nc(C(=O)N[C@H]3CCC[C@H]3O)cc(-c3ccc(OC(F)(F)F)cc3)n2)cn1` (relative stereo) [Example 91, N-[(cis)-2-hydroxycyclopentyl]-2-(1-methyl-1H-pyrazol-4-yl)-6-[4-(trifluoromethoxy)phenyl]pyrimidine-4-carboxamide] yielded an IC50 of 1.58 nM. The result for `Cn1cc(-c2nc(C(=O)N[C@@H]3CS(=O)(=O)C[C@@H]3O)cc(-c3ccc(OC(F)(F)F)cc3)n2)cn1` (relative stereo) [Example 98, N-[(cis)-4-hydroxy-1,1-dioxo-1lambda^6-thiolan-3-yl]-2-(1-methyl-1H-pyrazol-4-yl)-6-[4-(trifluoromethoxy)phenyl]pyrimidine-4-carboxamide] reads 20.6 nM; that for `Cn1cc(-c2nc(C(=O)N[C@H]3CC[C@H]3O)cc(-c3ccc(OC(F)(F)F)cc3)n2)cn1` (relative stereo) [Example 107, N-[(cis)-2-hydroxycyclobutyl]-2-(1-methyl-1H-pyrazol-4-yl)-6-[4-(trifluoromethoxy)phenyl]pyrimidine-4-carboxamide], 4.57 nM. The value for `COc1ccc(-c2nc(C(=O)NCC(C)(C)O)cc(-c3ccc(OC(F)(F)F)cc3)n2)cn1` [Example 14, N-(2-hydroxy-2-methylpropyl)-2-(6-methoxypyridin-3-yl)-6-[4-(trifluoromethoxy)phenyl]pyrimidine-4-carboxamide] was 307 nM; that for `CC(C)(O)CNC(=O)c1cc(-c2ccc(OC(F)(F)F)cc2)nc(-c2cnc(C#N)nc2)n1` [Example 23, 2′-cyano-N-(2-hydroxy-2-methylpropyl)-6-[4-(trifluoromethoxy)phenyl][2,5′-bipyrimidine]-4-carboxamide] was more than 20000 nM. The molecule `CC(C)(O)CNC(=O)c1cc(-c2ccc(OC(F)(F)F)cc2)nc(-c2cnn(C3CC3)c2)n1` [Example 26, 2-(1-cyclopropyl-1H-pyrazol-4-yl)-N-(2-hydroxy-2-methylpropyl)-6-[4-(trifluoromethoxy)phenyl]pyrimidine-4-carboxamide] returned an IC50 of 3960 nM.

On to `COc1ccc(-c2nc(C(=O)N[C@@H](C)CO)cc(-c3ccc(OC(F)(F)F)cc3)n2)cn1` [Example 27, N-[(2S)-1-hydroxypropan-2-yl]-2-(6-methoxypyridin-3-yl)-6-[4-(trifluoromethoxy)phenyl]pyrimidine-4-carboxamide], for which it took 438 nM to reach half-maximal inhibition (IC50). Take `Cc1cscc1-c1nc(C(=O)N[C@@H](C)CO)cc(-c2ccc(OC(F)(F)F)cc2)n1` [Example 29, N-[(2S)-1-hydroxypropan-2-yl]-2-(4-methylthiophen-3-yl)-6-[4-(trifluoromethoxy)phenyl]pyrimidine-4-carboxamide]: half-maximal inhibition (IC50) required 15.2 nM. The result for `C[C@@H](CO)NC(=O)c1cc(-c2ccc(OC(F)(F)F)cc2)nc(-c2cccs2)n1` [Example 30, N-[(2S)-1-hydroxypropan-2-yl]-2-(thiophen-2-yl)-6-[4-(trifluoromethoxy)phenyl]pyrimidine-4-carboxamide] reads 6.38 nM; that for `C[C@@H](CO)NC(=O)c1cc(-c2ccc(OC(F)(F)F)cc2)nc(-c2ccsc2)n1` [Example 31, N-[(2S)-1-hydroxypropan-2-yl]-2-(thiophen-3-yl)-6-[4-(trifluoromethoxy)phenyl]pyrimidine-4-carboxamide], 14.5 nM. Molecule `Cc1ccsc1-c1nc(C(=O)N[C@@H](C)CO)cc(-c2ccc(OC(F)(F)F)cc2)n1` [Example 33, N-[(2S)-1-hydroxypropan-2-yl]-2-(3-methylthiophen-2-yl)-6-[4-(trifluoromethoxy)phenyl]pyrimidine-4-carboxamide] showed an IC50 of 9.25 nM.

For `C[C@@H](CO)NC(=O)c1cc(-c2ccc(OC(F)(F)F)cc2)nc(-c2ccc(C#N)nc2)n1` [Example 38, 2-(6-cyanopyridin-3-yl)-N-[(2S)-1-hydroxypropan-2-yl]-6-[4-(trifluoromethoxy)phenyl]pyrimidine-4-carboxamide], 4510 nM corresponded to half-maximal inhibition (IC50). `Cc1ncc(-c2nc(C(=O)N[C@@H](C)CO)cc(-c3ccc(OC(F)(F)F)cc3)n2)cn1` [Example 42, N-[(2S)-1-hydroxypropan-2-yl]-2′-methyl-6-[4-(trifluoromethoxy)phenyl][2,5′-bipyrimidine]-4-carboxamide] showed an IC50 of 120 nM.

For the molecule `C[C@@H](CO)NC(=O)c1cc(-c2ccc(OC(F)(F)F)cc2)nc(-c2cnn(C3CC3)c2)n1` [Example 44, 2-(1-cyclopropyl-1H-pyrazol-4-yl)-N-[(2S)-1-hydroxypropan-2-yl]-6-[4-(trifluoromethoxy)phenyl]pyrimidine-4-carboxamide], the midpoint of inhibition, the IC50, lay at 972 nM. On to `Cc1cn[nH]c1-c1nc(C(=O)N[C@@H](C)CO)cc(-c2ccc(OC(F)(F)F)cc2)n1` [Example 45, N-[(2S)-1-hydroxypropan-2-yl]-2-(4-methyl-1H-pyrazol-5-yl)-6-[4-(trifluoromethoxy)phenyl]pyrimidine-4-carboxamide], for which half-maximal inhibition (IC50) required 57.2 nM.

Regarding `COc1ccc(-c2nc(C(=O)NCC(C)(C)O)cc(-c3ccc(Cl)cc3)n2)cn1` [Example 46, 6-(4-chlorophenyl)-N-(2-hydroxy-2-methylpropyl)-2-(6-methoxypyridin-3-yl)pyrimidine-4-carboxamide], inhibition was half-maximal at 431 nM (IC50).

`C[C@@H](CO)NC(=O)c1cc(-c2ccc(Cl)cc2)nc(-c2cccs2)n1` [Example 50, 6-(4-chlorophenyl)-N-[(2S)-1-hydroxypropan-2-yl]-2-(thiophen-2-yl)pyrimidine-4-carboxamide] returned a half-inhibitory concentration (IC50) of 5.91 nM.

Molecule `Cc1noc(C)c1-c1nc(C(=O)NCC(C)(C)O)cc(-c2ccc(Cl)cc2)n1` [Example 56, 6-(4-chlorophenyl)-2-(3,5-dimethyl-1,2-oxazol-4-yl)-N-(2-hydroxy-2-methylpropyl)pyrimidine-4-carboxamide] showed an IC50 of 965 nM. `CC(C)(O)CNC(=O)c1cc(-c2ccc(Cl)cc2)nc(-c2cc[nH]n2)n1` [Example 58, 6-(4-chlorophenyl)-N-(2-hydroxy-2-methylpropyl)-2-(1H-pyrazol-3-yl)pyrimidine-4-carboxamide] came in with an IC50 of 328 nM. Take `CC(C)(O)CNC(=O)c1cc(-c2ccc(Cl)cc2)nc(-c2ccc(C#N)nc2)n1` [Example 59, 6-(4-chlorophenyl)-2-(6-cyanopyridin-3-yl)-N-(2-hydroxy-2-methylpropyl)pyrimidine-4-carboxamide]: half-maximal inhibition (IC50) required 6870 nM. The result for `Cc1n[nH]cc1-c1nc(C(=O)NCC(C)(C)O)cc(-c2ccc(Cl)cc2)n1` [Example 65, 6-(4-chlorophenyl)-N-(2-hydroxy-2-methylpropyl)-2-(3-methyl-1H-pyrazol-4-yl)pyrimidine-4-carboxamide] reads 355 nM. Regarding `Cc1nn(C)cc1-c1nc(C(=O)NCC(C)(C)O)cc(-c2ccc(Cl)cc2)n1` [Example 66, 6-(4-chlorophenyl)-2-(1,3-dimethyl-1H-pyrazol-4-yl)-N-(2-hydroxy-2-methylpropyl)pyrimidine-4-carboxamide], half-maximal inhibition (IC50) required 50.1 nM.

As for `CC(C)(O)CNC(=O)c1cc(-c2ccc(Cl)cc2)nc(-c2cnc(Cl)nc2)n1` [Example 67, 2′-chloro-6-(4-chlorophenyl)-N-(2-hydroxy-2-methylpropyl)[2,5′-bipyrimidine]-4-carboxamide], the IC50 came to 12600 nM. Molecule `COc1ccc(-c2nc(C(=O)N[C@@H](C)CO)cc(-c3ccc(Cl)cc3)n2)cn1` [Example 69, 6-(4-chlorophenyl)-N-[(2S)-1-hydroxypropan-2-yl]-2-(6-methoxypyridin-3-yl)pyrimidine-4-carboxamide] registered an IC50 of 342 nM. As for `CC(C)Cn1cc(-c2nc(C(=O)N[C@@H](C)CO)cc(-c3ccc(Cl)cc3)n2)cn1` [Example 77, 6-(4-chlorophenyl)-N-[(2S)-1-hydroxypropan-2-yl]-2-[1-(2-methylpropyl)-1H-pyrazol-4-yl]pyrimidine-4-carboxamide], the IC50 came out at 1180 nM.

`C[C@@H](CO)NC(=O)c1cc(-c2ccc(Cl)cc2)nc(-c2ccc(C#N)nc2)n1` [Example 78, 6-(4-chlorophenyl)-2-(6-cyanopyridin-3-yl)-N-[(2S)-1-hydroxypropan-2-yl]pyrimidine-4-carboxamide] registered an IC50 of 741 nM. `C[C@@H](CO)NC(=O)c1cc(-c2ccc(Cl)cc2)nc(-c2cn[nH]c2)n1` [Example 81, 6-(4-chlorophenyl)-N-[(2S)-1-hydroxypropan-2-yl]-2-(1H-pyrazol-4-yl)pyrimidine-4-carboxamide] showed an IC50 of 1040 nM.

The record behind these values is patent US11304946B2, “2-hetarylpyrimidine-4-carboxamides as aryl hydrocarbon receptor antagonists” (Bayer Aktiengesellschaft, priority 2017, dated 2022).
